What was measured:
Type in all cases: in vivo, mouse
[1] = test system: MBT-2 tumor cells; assay: Survival in orthotopic MBT-2 bladder tumor model; conditions: tasquinimod 30 mg/kg twice a day 21 days; Anti-PD1 10 mg/kg i.p. twice weekly; control 29 days; FIG. 9
Description: FIG. 9: MBT-2 tumor cells were injected orthotopically into female C3H/HeJ mice. Briefly, after a period of 4-hour of water deprivation, mice were anaesthetized using a mix of Ketamine and Xylazine. A catheter (ref: 381212 24G, BD Insyte) was inserted in the bladder through the urethra and 30 μI 0.1 N HCl was injected for 15 seconds, then replaced by 30 μI 0.1 N NaOH for 15 seconds. MBT-2 tumor cells (2×1 06) were instilled into the bladder for 45 minutes. The treatment was initiated at day 3. Tasquinimod was given at the dose of 30 mg/kg by oral gavage twice a day for 21 consecutive days. Anti-PD1 (clone: RMP1-14) or its isotype control (clone 2A3) was injected by intraperitoneal route at the dose of 10 mg/kg twice weekly for two consecutive weeks (at D4, D7, D11 and D14). The survival of MBT-2 tumor-bearing mice treated with anti-PD1, tasquinimod, the combination, or IgG control are shown in FIG. 9 (n=13). Dunnet-Hsu test was used to compare overall survival between groups.

[2] = test system: PD-1; assay: PD-1 expression level after tasquinimod treatment (data not shown); conditions: established MBT-2 tumors
[3] = test system: MBT-2 tumors; assay: Differential mRNA expression (qRT-PCR) in established MBT-2 tumors (Table S1)
Description: The relative mRNA expression of different genes was examined in MBT-2 tumors of treated animals with tasquinimod as compared to control group. Treatment started at day 11 post-tumor cell inoculation and qRT-PCR analysis was performed at day 15. Results are represented as mean fold-change compared with control. P values were evaluated using student test.
RNA extraction of murine CD1 1b+ was performed using the PicoPure® RNA Isolation Kit (Life Technologies). RNA in tumors was isolated from 100 μ ? -thick cryosections of OCT-embedded tumors using Trizol Reagent (Life Technologies). cDNAs were prepared using the High-Capacity cDNA Reverse Transcription Kit (Life Technologies) following the manufacturer's instructions. cDNA from CD1 1b+ isolated cells was pre-amplified (14 cycles) using the TaqMan PreAmp Master Mix (Life Technologies). Real time PCR (q-PCR) was performed with a two-step PCR protocol (95° C. for 10 min, followed by 40 cycles at 95° C. for 15 s and 60° C. for 1 min) using Taqman gene expression (Life Technologies). The probes that were used are documented in Table S2. Hmbs was used as “housekeeping” gene whose expression was correlated to other housekeeping quantified genes (e.g. Cyclophilin A). Expression levels were calculated as normalized ACt expression values between target gene and “housekeeping” genes.

[4] = test system: MBT-2 tumors; assay: Gene expression profiling (qRT-PCR) in MBT-2 tumors after 10 days of tasquinimod (Example 2); conditions: 30 mg/kg p.o. twice daily from day 10 for 10 days; FIG. 2
Description: FIG. 2: Gene expression profiling in MBT-2 tumors derived from mice treated with 30 mg/kg p.o. of tasquinimod twice daily from day 10 after tumor inoculation. Tasquinimod treatment was carried out for 10 days. Data are represented as fold change of treated tumors compared to control tumors.
Mice were treated as described in Example 1. After 10 days of treatment with tasquinimod, i.e. 20 days after tumor inoculation, RNA from tumors was isolated from 100 μηη of OCT-embedded tumor cryosections using Trizol Reagent (Life Technologies). RNA concentration and purity was determined through measurement of A260/A280 ratios with a NanoDrop ND-1000 spectrophotometer. RNA integrity was checked using the Agilent 2100 Bioanalyzer. cDNA was prepared using High-Capacity cDNA Reverse Transcription Kit (LifeTechnologies) following the manufacturer's instructions. Q-PCR was performed with a […] PCR-protocol (95° C. for 10 min, followed by 40 cycles of 95° C. for 15 sec and 60° C. for 1 min) using Taqman gene expression (LifeTechnologies). Expression levels were calculated as normalized ACt expression values between target gene and the two “housekeeping” and Hmbs and Cyclophilin A for Taqman technology. Data were presented as fold induction (2AACt) of treated tumors compared to control tumors. The probes used in the experiments are the following: […]

[5] = tasquinimod 30 mg/kg from day 11, qRT-PCR at day 15

COc1cccc2c1c(O)c(C(=O)N(C)c1ccc(C(F)(F)F)cc1)c(=O)n2C [tasquinimod, 4-hydroxy-5-methoxy-N,1-dimethyl-2-oxo-N-[4-(trifluoromethyl)phenyl]-1,2-dihydroquinoline-3-carboxamide]
median survival of mice [1]: 27 days | expression level of PD-1 [2]: not changed | mRNA expression of PD-L1 in MBT-2 tumors ([3]; established tumors, tasquinimod 30 mg/kg): increased | Fold change tasquinimod/control, CCL5 mRNA [3, 5]: 0.88 | Fold change tasquinimod/control, CCL7 mRNA [3, 5]: 0.90 | Fold change tasquinimod/control, Ccl2 mRNA [3, 5]: 0.86 | Fold change tasquinimod/control, Cd274/PD-L1 mRNA [3, 5]: 1.46 | Fold change tasquinimod/control, Cxcl5 mRNA [3, 5]: 2.31 | Fold change tasquinimod/control, Cxcl9 mRNA [3, 5]: 0.80 | Fold change tasquinimod/control, Cxcl11 mRNA [3, 5]: 1.63 | Fold change tasquinimod/control, II-12b mRNA [3, 5]: 1.71 | Fold change tasquinimod/control, Ifng mRNA [3, 5]: 1.53 | Fold change tasquinimod/control, Mrc1/CD206 mRNA [3, 5]: 0.90 | Fold change tasquinimod/control, Nos2 mRNA [3, 5]: 1.76 | Fold change tasquinimod/control, Serpinb2 mRNA [3, 5]: 3.65 | Fold change tasquinimod/control, Tnf mRNA [3, 5]: 1.19 | expression of 11-12b [4]: increase | expression of CD206, a M2 macrophage marker [4]: decrease | expression of nos2 [4]: increase | mRNA expression of Cd274 in the tumor microenvironment [4]: increase

From patent publication US20200129499A1, “COMBINATION OF TASQUINIMOD OR A PHARMACEUTICALLY ACCEPTABLE SALT THEREOF AND A PD-1 AND/OR PD-L1 INHIBITOR, FOR USE AS A MEDICAMENT” (ACTIVE BIOTECH AB, priority 2015, published 2020)
